The target in one experiment is K-Ras-wildtype (Homo sapiens, UniProt P01116). As to the kind of experiment: K-Ras-wildtype activation by SOS1 (wild-type KRAS activation by SOS1cat assay, HTRF). Type of experiment: biochemical. Conditions: mean, SOS1cat mediated loading of wild-type GST-KRAS-GDP with fluorescent GTP analogue, read-out: K-Ras-wildtype activation by SOS1 IC50 - [mol/l] (mean). The protocol: (§1) Preparation of test compound dilutions. A 100-fold concentrated solution of the test compound (50 nL) in DMSO was transferred to microtiter test plates (384 or 1,536 wells, Greiner Bio-One, Germany) using either a Hummingbird liquid handler (Digilab, MA, USA) or an Echo acoustic system (Labcyte, CA, USA). Plates were sealed with adhesive foil or heat-sealed and stored at −20 C until use. Serial dilutions of test compounds were prepared in 100% DMSO using a Precision Pipetting System (BioTek, USA).
K-Ras-wildtype, sequence (P01116 1-188 isoform P01116-2): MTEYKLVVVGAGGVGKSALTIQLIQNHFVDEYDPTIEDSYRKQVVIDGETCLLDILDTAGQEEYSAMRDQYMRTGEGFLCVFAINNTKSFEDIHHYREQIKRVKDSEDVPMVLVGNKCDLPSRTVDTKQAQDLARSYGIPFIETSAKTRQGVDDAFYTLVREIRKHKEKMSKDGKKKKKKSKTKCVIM
(§2) Measurement and evaluation of inhibition data, calculation of IC50 values. Homogeneous time-resolved fluorescence (HTRF) was measured with a PHERAstar reader (BMG, Germany) using the HTRF module (excitation: 337 nm; emission 1: 620 nm, emission 2: 665 nm). The ratio of the emissions at 665 and 620 nm was used as the specific signal for further evaluation. The data were normalized using the controls: DMSO=0% inhibition, inhibition control wells with inhibitor control solution=100% inhibition. Compounds were tested in duplicates at up to 11 concentrations (e.g. 20 μM, 5.7 μM, 1.6 μM, 0.47 μM, 0.13 μM, 38 nM, 11 nM, 3.1 nM, 0.89 nM, 0.25 nM and 0.073 nM). IC50 values were calculated using a four-parameter fit, with a commercial software package (Genedata Screener, Switzerland).
(§3) KRAS^G12C activation by SOS1^cat assay (“On-assay”). This assay quantifies SOS1^cat mediated loading of KRAS^G12C-GDP with a fluorescent GTP analogue. Detection of successful loading was achieved by measuring resonance energy transfer from anti-GST-terbium (FRET donor) bound to GST-KRAS^G12C to the loaded fluorescent GTP analogue (FRET acceptor). The fluorescent GTP analogue EDA-GTP-DY-647P1 [2′/3′-O-(2-aminoethyl-carbamoyl)guanosine-5′-triphosphate labelled with DY-647P1 (Dyomics GmbH, Germany)] was synthesized by Jena Bioscience (Germany) and supplied as a 1 mM aqueous solution. A KRAS^G12C working solution was prepared in assay buffer [10 mM HEPES pH 7.4 (AppliChem), 150 mM NaCl (Sigma), 5 mM MgCl2 (Sigma), 1 mM DTT (Thermo Fisher), 0.05% BSA Fraction V pH 7.0 (ICN Biomedicals), 0.0025% (v/v) Igepal (Sigma)] containing GST-KRAS^G12C (final concentration in assay 50 nM) and anti-GST-terbium (Cisbio, France) (final concentration in assay 1 nM). A SOS1^cat working solution was prepared in assay buffer containing SOS1^cat (final concentration 10 nM) and EDA-GTP-DY-647P1 (final concentration 100 nM). An inhibitor control solution was prepared in assay buffer containing EDA-GTP-DY-647P1 (final concentration 100 nM) without SOS1^cat. All steps of the assay were performed at 20° C. A volume of 3 μL of the KRAS^G12C working solution was added to all wells of the test plate using a Multidrop dispenser (Thermo LabSystems). After 15 min, 2 μL of the SOS1^ct working solution was added to all wells, except for the inhibitor control solution wells. After 30 min incubation, HTRF was measured.
(§4) G12D and Wild-type KRAS activation by SOS1cat assays. These assays quantify human SOS1^cat mediated loading of wild-type GST-KRAS^WT-GDP or GST-KRAS^G12D-GDP with a fluorescent GTP analogue. The assay was performed similarly to the KRAS^G12C activation by SOS1^cat assay with the following differences: final concentration of SOS1^cat of 60 nM and final incubation time before measurement of 10 min for KRAS^G12D assay, final concentration of SOS1^cat of 20 nM and final incubation time before measurement of 15 min for wild-type KRAS assay, respectively. GST-KRAS^G12C was replaced by GST-KRAS^WT or GST-KRAS^G12D, respectively, also at 50 nM final concentration.
Wild-type KRAS activation by SOS1^cat assay. This assay quantifies human SOS1^cat mediated loading of wild-type GST-KRAS-GDP with a fluorescent GTP analogue. The assay was performed similarly to the KRAS^G12D activation by SOS1^cat assay just by replacement of GST-KRAS^G12D by wild-type GST-KRAS while concentrations of all components and incubation times were the same.
A general note: Time-resolved FRET reads energy transfer from a long-lived donor to a nearby acceptor.

Another experiment addresses K-Ras G12D (Homo sapiens, UniProt P01116, G12D). Description: K-Ras G12D activation by SOS1 (KRAS G12D activation by SOS1cat assay, HTRF). Type of experiment: biochemical. Particulars: mean, SOS1cat mediated loading of GST-KRAS G12D-GDP with fluorescent GTP analogue, read-out: K-Ras G12D activation by SOS1 IC50 - [mol/l] (mean). The protocol: as §1, §2, §3, §4
KRAS^G12D activation by SOS1^cat assay (“On-assay”). This assay quantifies SOS1^cat mediated loading of KRAS^G12D-GDP with a fluorescent GTP analogue. Detection of successful loading was achieved by measuring resonance energy transfer from anti-GST-terbium (FRET donor) bound to GST-KRAS^G12D to the loaded fluorescent GTP analogue (FRET acceptor).

Experimental findings from patent publication US20250154170A1, “FUSED PYRIMIDINES AS KRAS INHIBITORS” (priority 2022, published 2025) are described below.

Structures are written as SMILES.

K-Ras G12D, sequence (P01116 1-188 isoform P01116-2 G12D): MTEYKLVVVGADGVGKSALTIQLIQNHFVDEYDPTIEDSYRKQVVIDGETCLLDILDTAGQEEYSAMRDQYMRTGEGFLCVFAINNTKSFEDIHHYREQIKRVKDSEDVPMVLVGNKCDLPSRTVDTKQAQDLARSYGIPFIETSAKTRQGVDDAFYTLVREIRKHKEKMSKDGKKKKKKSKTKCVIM

With `CN(c1nc2c(N3CC4CCC(C3)N4)nc(OC[C@@]34CCCN3C[C@H](F)C4)nc2s1)c1cc(O)cc2ccccc12` [Example 29, 4-{[7-(3,8-diazabicyclo[3.2.1]octan-3-yl)-5-{[(2R,7aS)-2-fluorotetrahydro-1H-pyrrolizin-7a(5H)-yl]methoxy}[1,3]thiazolo[5,4-d]pyrimidin-2-yl](methyl)amino}naphthalen-2-ol], the IC50 on K-Ras-wildtype was 11.9 µM; on K-Ras G12D, 0.284 µM.
For `Oc1cc(Nc2nc3c(N4CC5COCC(C4)N5)nc(OC[C@@]45CCCN4C[C@H](F)C5)nc3s2)c2ccccc2c1` [Example 30, 4-{[5-{[(2R,7aS)-2-fluorotetrahydro-1H-pyrrolizin-7a(5H)-yl]methoxy}-7-(3-oxa-7,9-diazabicyclo[3.3.1]nonan-7-yl) [1,3]thiazolo[5,4-d]pyrimidin-2-yl]amino}-2-naphthol], the IC50 at K-Ras-wildtype stood at 7.61 µM; on K-Ras G12D it was 10.6 µM.
For `C#Cc1cccc2cc(O)cc(N(C)c3nc4c(N5CC6CCC(C5)N6)nc(OC[C@@]56CCCN5C[C@H](F)C6)nc4s3)c12` [Example 31, 4-{[7-(3,8-diazabicyclo[3.2.1]octan-3-yl)-5-{[(2R,7aS)-2-fluorotetrahydro-1H-pyrrolizin-7a(5H)-yl]methoxy}[1,3]thiazolo[5,4-d]pyrimidin-2-yl](methyl)amino}-5-ethynylnaphthalen-2-ol], in that order: 0.0615 µM and 0.00442 µM.
In the same order, the values of `C#Cc1c(F)ccc2cc(O)cc(Cc3nc4c(N5CC6CCC(C5)N6)nc(OC[C@@]56CCCN5C[C@H](F)C6)nc4s3)c12` [Example 32, 4-{[7-(3,8-diazabicyclo[3.2.1]octan-3-yl)-5-{[(2R,7aS)-2-fluorotetrahydro-1H-pyrrolizin-7a(5H)-yl]methoxy}[1,3]thiazolo[5,4-d]pyrimidin-2-yl]methyl}-5-ethynyl-6-fluoronaphthalen-2-ol] are 0.0998 µM and 0.00395 µM.
